These compounds were tested on production of tumor necrosis factor (TNF) by monocytes activated with bacterial lipopolysaccharide (LPS) (assay: Lipopolysaccharide-activated Monocyte TNF Production Assay). Conditions: Homo sapiens, TNF in culture supernatants by ELISA, read-out: IC50 (concentration of test compounds causing a 50% reduction in TNF production).
Format: cell-based
Experimental: Lipopolysaccharide-activated Monocyte TNF Production Assay
Test compounds were evaluated in vitro for the ability to inhibit the production of tumor necrosis factor (TNF) by monocytes activated with bacterial lipopolysaccharide (LPS). Fresh residual source leukocytes (a byproduct of plateletpheresis) were obtained from the local blood bank and peripheral blood mononuclear cells (PBMCs) were isolated by density gradient centrifugation on Ficol-Paque Plus (Pharmacia). PBMCs were suspended at 2×10^6/ml in DMEM supplemented to contain 2% FCS (10 mM), 0.3 mg/ml glutamate, 100 U/ml penicillin G and […] streptomycin sulfate (complete media). Cells were plated into Falcon flatbottom 96 well culture plates (200 μl/well) and cultured overnight at 37° C. and 6% CO2. Nonadherent cells were removed by washing with 200 μl/well of fresh medium. Wells containing adherent cells (˜70% monocytes) were replenished with 100 μl of fresh medium.
Preparation of Test Compound Stock Solutions
Test compounds were dissolved in […]. Compound stock solutions were prepared to an initial concentration of […]. Stocks were diluted initially to 20-200 μM in complete media. Nine two-fold serial dilutions of each compound were then prepared in complete medium.
Treatment of Cells with Test Compounds and Activation of TNF Production with Lipopolysaccharide
One hundred microliters of each test compound dilution were added to microtiter wells containing adherent monocytes and 100 μl complete medium. Monocytes were cultured with test compounds for 60 min at which time 25 μl of complete medium containing 30 ng/ml lipopolysaccharide from E. coli K532 were added to each well. Cells were cultured an additional 4 hrs. Culture supernatants were then removed and TNF present in the supernatants was quantified using an ELISA.
Flat bottom 96 well Coming High Binding ELISA plates were coated overnight (4° C.) with 150 μL/well of 3 μg/ml murine anti-human TNFa MAb (R&D Systems #MAB210). Wells were then blocked 1 h at room temperature with 200 μL/well of CaCl2-free ELISA buffer supplemented to contain 20 mg/ml BSA (standard ELISA buffer: […], 150 mM NaCl, 2 mM CaCl2, 0.15 mM thimerosal, pH 7.4). Plates were washed and replenished with 100 μl of test supernatants (diluted 1:3) or standards. Standards consisted of eleven 1.5-fold serial dilutions from a stock of 1 ng/ml recombinant human TNF (R&D Systems). Plates were incubated at room temperature for 1 h on orbital shaker (300 rpm), washed and replenished with 100 μl/well of 0.5 jig/ml goat anti-human TNFa (R&D systems #AB-210-NA) biotinylated at a 4:1 ratio. Plates were incubate for 40 min, washed and replenished with 100 μl/well of alkaline phosphatase-conjugated streptavidin (Jackson ImmunoResearch #016-050-084) at 0.02 μg/ml. Plates were incubated 30 min, washed and replenished with 200 μl well of 1 mg/ml of p-nitrophenyl phosphate. After 30 min, plates were read at 405 nm on a Vmax plate reader.
Standard curve data were fit to a second order polynomial and unknown TNF-a concentrations determined from their OD by solving this equation for concentration. TNF concentrations were then plotted Vs test compound concentration using a second order polynomial. This equation was then used to calculate the concentration of test compounds causing a 50% reduction in TNF production.
Work on `Fc1ccc(-c2[nH]c3nccnc3c2-c2ccncc2)cc1` [Compound 99, 3-(4-pyridyl)-2-(4-fluorophenyl)-4,7-diaza-indole] yielded an IC50 of less than 20 µM. With `CC(C)(C)OC(=O)N1CCC[C@H]1C(=O)Nc1ccc2c(-c3ccncc3)c(-c3ccc(F)cc3)[nH]c2n1` [Compound 100, 6-(2′-N-t-Butoxycarbonyl-L-prolylamino)-3-(4-pyridyl)-2-(4-fluorophenyl)-7-aza-indole] the IC50 was less than 20 µM. With `O=C(Nc1ccc2c(-c3ccncc3)c(-c3ccc(F)cc3)[nH]c2n1)[C@@H]1CCCN1` [Compound 101, 6-(2′-L-prolylamino)-3-(4-pyridyl)-2-(4-fluorophenyl)-7-aza-indole] the IC50 was less than 20 µM. With `C[C@@H](C(=O)Nc1ccc2c(-c3ccncc3)c(-c3ccc(F)cc3)[nH]c2n1)N(C)C` [Compound 102, 6-(2S′-dimethylamino-1′-oxo-propylamino)-3-(4-pyridyl)-2-(4-fluorophenyl)-7-aza-indole] the IC50 was less than 1 µM. `CN(C)CC(=O)Nc1ccc2c(-c3ccncc3)c(-c3ccc(F)cc3)[nH]c2n1` [Compound 103, 6-(2′-Dimethylamino-1′-oxo-ethylamino)-3-(4-pyridyl)-2-(4-fluorophenyl)-7-aza-indole] was tested, and the IC50 was less than 20 µM. For `CN(CC(=O)Nc1ccc2c(-c3ccncc3)c(-c3ccc(F)cc3)[nH]c2n1)C(=O)OC(C)(C)C` [Compound 104, 6-(2′-N-methyl-t-butoxycarbonylamino-1′-oxo-ethylamino)-3-(4-pyridyl)-2-(4-fluorophenyl)-7-aza-indole], the IC50 was less than 1 µM. Work on `CNCC(=O)Nc1ccc2c(-c3ccncc3)c(-c3ccc(F)cc3)[nH]c2n1` [Compound 105, 6-(2′-N-methyl-amino-1′-oxo-ethylamino)-3-(4-pyridyl)-2-(4-fluorophenyl)-7-aza-indole] yielded an IC50 of less than 1 µM. In the case of `CC(C)(C)OC(=O)N1CCC(C(=O)Nc2ccc3c(-c4ccncc4)c(-c4ccc(F)cc4)[nH]c3n2)CC1` [Compound 106, 6-(4′-N-t-butoxycarbonylisonipecotylamino)-3-(4-pyridyl)-2-(4-fluorophenyl)-7-aza-indole], the IC50 is reported as less than 1 µM. With `O=C(Nc1ccc2c(-c3ccncc3)c(-c3ccc(F)cc3)[nH]c2n1)C1CCNCC1` [Compound 107, 6-(4′-isonipecotylamino)-3-(4-pyridyl)-2-(4-fluorophenyl)-7-aza-indole] the IC50 was less than 1 µM. With `C[S+]([O-])CC[C@H](NC(=O)OC(C)(C)C)C(=O)Nc1ccc2c(-c3ccncc3)c(-c3ccc(F)cc3)[nH]c2n1` (stereo partly drawn) [Compound 108, 6-(4′-methylsulfoxo-1′-oxo-2′S-t-butoxycarbonylaminobutylamino)-3-(4-pyridyl)-2-(4-fluorophenyl)-7-aza-indole] the IC50 was less than 20 µM. `C[S+]([O-])CC[C@H](N)C(=O)Nc1ccc2c(-c3ccncc3)c(-c3ccc(F)cc3)[nH]c2n1` (stereo partly drawn) [Compound 109, 6-(4′-methylsulfoxo-1′-oxo-2′S-aminobutylamino)-3-(4-pyridyl)-2-(4-fluorophenyl)-7-aza-indole] was tested, and the IC50 was less than 20 µM. With `CC(C)(C)OC(=O)N[C@@H](Cc1cccnc1)C(=O)Nc1ccc2c(-c3ccncc3)c(-c3ccc(F)cc3)[nH]c2n1` [Compound 110, 6-(3′-(3-pyridyl)-1′-oxo-2′S-t-butoxycarbonylaminopropylamino)-3-(4-pyridyl)-2-(4-fluorophenyl)-7-aza-indole] the IC50 was less than 20 µM. `N[C@@H](Cc1cccnc1)C(=O)Nc1ccc2c(-c3ccncc3)c(-c3ccc(F)cc3)[nH]c2n1` [Compound 111, 6-(3′-(3-pyridyl)-1′-oxo-2′S-aminopropylamino)-3-(4-pyridyl)-2-(4-fluorophenyl)-7-aza-indole] gave an IC50 of less than 20 µM. `CC(C)(C)OC(=O)N[C@@H](Cc1cncn1C(=O)OC(C)(C)C)C(=O)Nc1ccc2c(-c3ccncc3)c(-c3ccc(F)cc3)[nH]c2n1` [Compound 112] gave an IC50 of less than 20 µM. In the case of `N[C@@H](Cc1cnc[nH]1)C(=O)Nc1ccc2c(-c3ccncc3)c(-c3ccc(F)cc3)[nH]c2n1` [Compound 113, 6-(L-histidinylamino)-3-(4-pyridyl)-2-(4-fluorophenyl)-7-aza-indole], the IC50 is reported as less than 20 µM. With `O=C(Nc1ccc2c(-c3ccncc3)c(-c3ccc(F)cc3)[nH]c2n1)[C@@H]1Cc2ccccc2CN1` [Compound 115, 6-(3(S) 1′,2′,3′,4′-tetrahydro-3′-isoguinolinyloxoamino)-3-(4-pyridyl)-2-(4-fluorophenyl)-7-aza-indole] the IC50 was less than 20 µM. Compound `N[C@@H](C(=O)Nc1ccc2c(-c3ccncc3)c(-c3ccc(F)cc3)[nH]c2n1)c1ccccc1` [Compound 117, 6-(2′-phenyl-1′-oxo-2′R-aminoethylamino)-3-(4-pyridyl)-2-(4-fluorophenyl)-7-aza-indole] has an IC50 of less than 1 µM. `N[C@H](C(=O)Nc1ccc2c(-c3ccncc3)c(-c3ccc(F)cc3)[nH]c2n1)c1ccccc1` [Compound 119, 6-(2′-phenyl-1′-oxo-2′S-aminoethylamino)-3-(4-pyridyl)-2-(4-fluorophenyl)-7-aza-indole] gave an IC50 of less than 1 µM. With `CN[C@@H](C(=O)Nc1ccc2c(-c3ccncc3)c(-c3ccc(F)cc3)[nH]c2n1)c1ccccc1` [Compound 121, 6-(2′-phenyl-1′-oxo-2′R-N-methylaminoethylamino)-3-(4-pyridyl)-2-(4-fluorophenyl)-7-aza-indole] the IC50 was less than 1 µM. For `C[C@H](N)C(=O)Nc1ccc2c(-c3ccncc3)c(-c3ccc(F)cc3)[nH]c2n1` [Compound 123, 6-(1′-oxo-2′S-aminopropylamino)-3-(4-pyridyl)-2-(4-fluorophenyl)-7-aza-indole], the IC50 was less than 1 µM. In the case of `N[C@@H](Cc1ccccc1)C(=O)Nc1ccc2c(-c3ccncc3)c(-c3ccc(F)cc3)[nH]c2n1` [Compound 125, 6-(3′-phenyl-1′-oxo-2′-(L)-aminopropylamino)-3-(4-pyridyl)-2-(4-fluorophenyl)-7-aza-indole], the IC50 is reported as less than 20 µM. Work on `CN[C@@H](C)C(=O)Nc1ccc2c(-c3ccncc3)c(-c3ccc(F)cc3)[nH]c2n1` [Compound 127, 6-(1′-oxo-2′S-N-methylaminopropylamino)-3-(4-pyridyl)-2-(4-fluorophenyl)-7-aza-indole] yielded an IC50 of less than 1 µM. With `CN[C@@H](CC(C)C)C(=O)Nc1ccc2c(-c3ccncc3)c(-c3ccc(F)cc3)[nH]c2n1` [Compound 129, 6-(1′-oxo-2′S-N-methyl-4-methyl-2-aminopentylamino)-3-(4-pyridyl)-2-(4-fluorophenyl)-7-aza-indole] the IC50 was less than 20 µM. `C[C@@H](N)C(=O)Nc1ccc2c(-c3ccncc3)c(-c3ccc(F)cc3)[nH]c2n1` [Compound 131, 6-(1′-oxo-2′R-aminopropylamino)-3-(4-pyridyl)-2-(4-fluorophenyl)-7-aza-indole] gave an IC50 of less than 1 µM. With `N[C@@H](Cc1cccs1)C(=O)Nc1ccc2c(-c3ccncc3)c(-c3ccc(F)cc3)[nH]c2n1` [Compound 133, 6-(3′-(2-thienyl)-1′-oxo-2′-(L)-aminopropylamino)-3-(4-pyridyl)-2-(4-fluorophenyl)-7-aza-indole] the IC50 was less than 20 µM. `[N-]=[N+]=Nc1ccc(C[C@H](N)C(=O)Nc2ccc3c(-c4ccncc4)c(-c4ccc(F)cc4)[nH]c3n2)cc1` [Compound 135, 6-(3′-(4-azidophenyl)-1′-oxo-2′S-aminopropylamino)-3-(4-pyridyl)-2-(4-fluorophenyl)-7-aza-indole] showed an IC50 of less than 20 µM. For `N[C@@H](Cc1csc2ccccc12)C(=O)Nc1ccc2c(-c3ccncc3)c(-c3ccc(F)cc3)[nH]c2n1` [Compound 137, 6-(3′-(3-benzothienyl)-1′-oxo-2′S-aminopropylamino)-3-(4-pyridyl)-2-(4-fluorophenyl)-7-aza-indole], the IC50 was less than 20 µM.

Reference: patent US6605634B2 (Amgen, Inc., priority 1996, dated 2003)
